Patent US20130190514A1, “PHENYLALKYL N-HYDROXYUREAS FOR TREATING LEUKOTRIENE RELATED PATHOLOGIES” (TALLIKUT PHARMACEUTICALS, INC., priority 2010, published 2013)

Key:
[1] = test system: leukotriene B4 (LTB4); assay: Ex vivo LTB4 in blood by ELISA, Phase 2 ACS study; set-up: species or system human; details: trough drug levels
Method: (§1) In this randomized, placebo-controlled study, 191 patients were randomized 3 weeks after an acute coronary syndrome (ACS) to receive 25, 50, or 100 mg N-[3-[5-[(4-fluorophenyl)methyl]-2-thienyl]-1-methyl-2-propynyl]-N-hydroxyurea or placebo qd for 12 weeks. Baseline assessments were performed at the start of treatment and these baseline results were compared with repeat assessments during various follow-up periods during the treatment study. A subset of 93 patients who had undergone a Multidetector (64 slice coronary) Computerized Tomography (MDCT) examination at baseline continued on study medication for a total of 24 weeks and underwent a repeat scan. Patients received a single daily oral dose of 25 mg, 50 mg, or 100 mg of N-[3-[5-[(4-fluorophenyl)methyl]-2-thienyl]-1-methyl-2-propynyl]-N-hydroxyurea or matching placebo by administering 2 capsules as prepared in Example 3 for 12 weeks or 24 weeks. Blood samples for measurement of ex vivo leukotriene B4 (LTB4) and high sensitivity C reactive protein (hsCRP), and urine samples for measurement of urinary leukotriene E4 (LTE4) levels were collected pre-dose on weeks 2, 6 and 12. Blood samples were assayed for ex vivo LTB4 by enzyme-linked immunosorbent assay, and for hsCRP by an immunoturbidimetric method. Urine samples were assayed for LTE4 using Liquid Chromatography with Tandem Mass Spectrometry (LC/MS/MS).

[2] = test system: leukotriene E4 (LTE4); assay: Urinary LTE4 by LC/MS/MS, Phase 2 ACS study; format: in vivo, human; details: all doses (25, 50, 100 mg qd)
Method: as §1

[3] = test system: inflammatory genes, including IL-6, IL 8, IL-10, MMP9, I-kappa-B, osteopontin; assay: Inflammatory gene expression in carotid plaques (TaqMan), Phase 2 CEA study; format: in vivo, human; details: rupture-prone plaque subtypes, 100 mg qd oral, 12 weeks
Method: In this randomized, double blind, placebo-controlled study, 50 patients with significant carotid artery stenosis (60-90%) were treated once daily for 12 weeks with orally administered 100 mg N-[3-[5-[(4-fluorophenyl)methyl]-2-thienyl]-1-methyl-2-propynyl]-N-hydroxyurea or placebo prior to undergoing CEA, at which time endarterectomy tissue (plaque) was collected and stored for subsequent tissue analysis. Baseline assessments are performed at the start of treatment and these baseline results were compared with repeat assessments during various follow-up periods of treatment. The treatment was conducted for twelve weeks at which time these baseline assessments were performed and compared.
At the end of 12 weeks treatment with 100 mg of N-[3-[5-[(4-fluorophenyl)methyl]-2-thienyl]-1-methyl-2-propynyl]-N-hydroxyurea, patients underwent CEA, at which time endarterectomy tissue (plaque) was collected, fixed in 10% formalin and paraffin blocks, and stored for subsequent tissue analysis. […] A portion of each of the plaques was also analyzed for inflammatory gene expression after isolation of total RNA and reverse transcription using a TaqMan® High Capacity cDNA assay.
LTB4, LTE4 and hsCRP biomarker data were assessed using change from baseline comparisons and an ANCOVA was used to compare the treatment groups where the covariate was the baseline value of the outcome measure. […]

[4] = test system: high sensitivity C reactive protein (hsCRP); assay: hsCRP in blood by immunoturbidimetric method, Phase 2 ACS study; format: in vivo, human
Method: as §1

[5] = test system: non-calcified plaque; assay: Coronary plaque by MDCT (64-slice CT), Phase 2 ACS study, 24-week substudy; format: in vivo, human; details: all three doses, serial MDCT images at 24 weeks
Method: In this randomized, placebo-controlled study, 191 patients were randomized 3 weeks after an acute coronary syndrome (ACS) to receive 25, 50, or 100 mg N-[3-[5-[(4-fluorophenyl)methyl]-2-thienyl]-1-methyl-2-propynyl]-N-hydroxyurea or placebo qd for 12 weeks. Baseline assessments were performed at the start of treatment and these baseline results were compared with repeat assessments during various follow-up periods during the treatment study. A subset of 93 patients who had undergone a Multidetector (64 slice coronary) Computerized Tomography (MDCT) examination at baseline continued on study medication for a total of 24 weeks and underwent a repeat scan. For those patients who continued on study medication for a total of 24 weeks, contrast-enhanced CT examination was performed at baseline and after 24 weeks of treatment with a 64-slice scanner (GE LightSpeed VCT; GE Healthcare, USA). Target plaque lesions were defined prospectively as non-calcified plaque with measurable low-density components of <60 HU situated in the proximal or middle portion of either the left main, left anterior ascending, left circumflex or right coronary artery causing at least 20% luminal stenosis. Prior to analysis of results, patients had their MDCT examinations evaluated twice by the same reviewer and also by a second reviewer for evaluation of intraobserver and interobserver variability of measurements.

CC(C#Cc1ccc(Cc2ccc(F)cc2)s1)N(O)C(N)=O (centres unmarked) [VIA-2291, N-[3-[5-[(4-fluorophenyl)methyl]-2-thienyl]-1-methyl-2-propynyl]-N-hydroxyurea]
inhibition of ex vivo LTB4 ([1]; 100-mg group, in >90% of patients): approximately 80% | ex vivo leukotriene LTB4 ([1]; all doses (25, 50, 100 mg qd), P<0.0001, dose-dependent): significantly reduced | urinary leukotriene LTE4 [2]: significantly reduced | expression of inflammatory genes, including IL-6, IL 8, IL-10, MMP9, I-kappa-B, osteopontin [3]: reduction in expression | hsCRP within group between 12 and 24 weeks ([4]; 100 mg group, P<0.01): significant reduction | decrease in hsCRP compared with placebo ([4]; 100-mg group at 24 weeks, P=0.0002): 67% | new plaque lesions compared with placebo [5]: reduced | non-calcified plaque volume compared with placebo [5]: reduced
